“Also recorded” adds a separate entry of the source. Read-outs that look alike come from different tables or passages of the source.
What was measured:
[1] = test system: FDC-cfms cells (M-CSF dependent, c-fms); experiment: cells; details: 12 h, read-out: inhibition of cell growth, M-CSF sole stimulation
[2] = test system: FDC-cfms cells (M-CSF dependent, c-fms); details: for Cell count, M-CSF, 12 H: 0 μM control 132174; for Cell count, M-CSF, 24 H: 0 μM control 310859; for Cell count, M-CSF, 48 H: 0 μM control 1453642
FDC-cfms cells = details: for Cell count, IL-3, 12 H: 0 μM control 125433; for Cell count, IL-3, 24 H: 0 μM control 257726; for Cell count, IL-3, 48 H: 0 μM control 1123171
[3] = test system: M-CSF production by the cultured monocytes; experiment: M-CSF ELISA on GM-CSF stimulated monocyte cultures; type: cell-based, human
Procedure: M-CSF ELISA. Monocytes are isolated from buffy coats from normal donors, as previously described, e.g. in Dewar A et al., 2003, Leukemia 17:1713-21. Monocyte cultures (1×10^5/mL) are established in 24 well plates in serum deprived medium (SDM; IMDM/1% BSA supplemented with 2 mM L-glutamine, 200 μg/mL transferrin, 10 μg/mL insulin (Actrapid®, Novo Nordisk), 10^−4 M β-mercaptoethanol, 50 μg/mL low density lipoproteins (Sigma)) and stimulated with 20 ng/mL GM-CSF. Supernatants are harvested at 24 h intervals for 5 days, and analysed for M-CSF using an R&D Systems DuoSete ELISA development system according to the manufacturers instructions.

Cc1ccc(NC(=O)c2ccc(CN3CCN(C)CC3)cc2)cc1Nc1nccc(-c2cccnc2)n1 [Compound I, 4-(4-methylpiperazin-1-ylmethyl)-N-[4-methyl-3-(4-(pyridin-3-yl)pyrimidin-2-ylamino)phenyl]-benzamide]
inhibition at 5 µM [1]: 50%
cell counts, M-CSF ([2]; 24 h, 5.0 μM Compound I): lower than seeded values
Cell count, M-CSF, 12 H ([2]; Compound I 0.5 μM): 133296 cells/mL
Cell count, M-CSF, 24 H ([2]; Compound I 0.5 μM): 339185 cells/mL
Cell count, M-CSF, 48 H ([2]; Compound I 0.5 μM): 1577777 cells/mL
Cell count, M-CSF, 12 H ([2]; Compound I 1 μM): 130010 cells/mL
Cell count, M-CSF, 24 H ([2]; Compound I 1 μM): 311035 cells/mL
Cell count, M-CSF, 48 H ([2]; Compound I 1 μM): 1362802 cells/mL
Cell count, M-CSF, 12 H ([2]; Compound I 5 μM): 68324 cells/mL
Cell count, M-CSF, 24 H ([2]; Compound I 5 μM): 20830 cells/mL
Cell count, M-CSF, 48 H ([2]; Compound I 5 μM): 20149 cells/mL
Cell count, M-CSF, 12 H ([2]; Compound I […]): 117025 cells/mL
Cell count, M-CSF, 24 H ([2]; Compound I […]): 174818 cells/mL
Cell count, M-CSF, 48 H ([2]; Compound I […]): 295134 cells/mL
effect on cell growth, IL-3 stimulated control cultures (FDC-cfms cells; 12 or 24 h, 0.5-5.0 μM Compound I): no Compound I-specific effects on cell growth; also recorded: No effect
Cell count, IL-3, 12 H (FDC-cfms cells; Compound I 0.5 μM): 131724 cells/mL
Cell count, IL-3, 24 H (FDC-cfms cells; Compound I 0.5 μM): 281975 cells/mL
Cell count, IL-3, 48 H (FDC-cfms cells; Compound I 0.5 μM): 1107666 cells/mL
Cell count, IL-3, 12 H (FDC-cfms cells; Compound I 1 μM): 126472 cells/mL
Cell count, IL-3, 24 H (FDC-cfms cells; Compound I 1 μM): 264007 cells/mL
Cell count, IL-3, 48 H (FDC-cfms cells; Compound I 1 μM): 1068150 cells/mL
Cell count, IL-3, 12 H (FDC-cfms cells; Compound I 5 μM): 106917 cells/mL
Cell count, IL-3, 24 H (FDC-cfms cells; Compound I 5 μM): 197435 cells/mL
Cell count, IL-3, 48 H (FDC-cfms cells; Compound I 5 μM): 682771 cells/mL
Cell count, IL-3, 12 H (FDC-cfms cells; Compound I […]): 131857 cells/mL
Cell count, IL-3, 24 H (FDC-cfms cells; Compound I […]): 247613 cells/mL
Cell count, IL-3, 48 H (FDC-cfms cells; Compound I […]): 940233 cells/mL
effect on M-CSF production by the cultured monocytes ([3]; 1.0 μM Compound I, GM-CSF 20 ng/mL): no effect
decrease in M-CSF production ([3]; 5.0 μM, GM-CSF stimulated monocytes): 30%
